Test results reported in patent publication US7642239B2, “Inhibition of placenta growth factor (PLGF) mediated metastasis and/or angiogenesis” (Center for Molecular Medicine and Immunology, priority 2005, dated 2010).
Marks after values point to notes of the source that are not given here.

Assays:
[1] = system: MDA-MB-468; test: Wound-healing (motility) assay, MDA-MB-468; assay type: cell-based, human; conditions: for Migrating cells: 18-24 h
Description: (§1) MCF-7, MDA-MB-23 1, and MDA-MB-468 breast tumor cell lines or HECs were seeded onto sterile glass coverslips in Petri dishes or six-well plates. When the cells were 70-80% confluent, the monolayers were scratched with a sterile plastic pipet tip.
(§2) Inhibitor concentrations were 50 μM PD98059 (PD98) (mitogen activated protein kinase-kinase 1 [MEK1] inhibitor), 5 nM Wortmannin (phosphatidyl inositol 3 kinase [PI3K] inhibitor), or human recombinant soluble Flt-1 (sFlt-1) (R&D Systems). […] Cells were pre-incubated with PD98 and Wortmannin for 15-30 min before addition of PlGF. Stained (Wright-Giemsa) and mounted coverslips were examined microscopically. Five to ten 100× fields were evaluated by counting the number of cells separated from the wound edges and which appeared to be migrating toward the center of the wound. Results are reported as the average number of cells migrating into the wound/100× field. In some cases data from separate experiments were combined to accommodate inclusion of various treatments in the tables.
(§3) Antibody concentration was 1 μg/ml. MEK1 inhibitor, PD98059 (PD98), 50 μM. PI3K inhibitor, Wortmannin, 5 nM. […] Values for antibody and inhibitor treatments were from separate experiments which included all relevant controls. […] UT denotes untreated controls. *P<0.01 (ANOVA) compared to UT; † P<0.02 (ANOVA) compared to PlGF only. ‡ P<0.001 (ANOVA) compared to PlGF only.

[2] = system: MDA-MB-231; test: Matrigel cell invasion assay, MDA-MB-231; assay type: cell-based, human; conditions: 24 h
Description: Cellular invasion was determined by addition of 5×10^4cells to growth factor-reduced Matrigel invasion chambers (BD Biosciences Discovery Labware, Bedford, Mass.) (Taylor et al., 2003b; Passaniti et al., 1992, Lab Invest 67, 519-528). Additives to the Matrigel® plugs were pre-incubated together in a total volume of 100 μl PBS at RT for 10 min, after which each additive was added to the Matrigel. Growth factors (2.0 or 0.2 nM), peptide (2 μg/ml), or antibody (1 μg/ml) were added to cells in low serum (0.1% fetal bovine serum [FBS]) medium. Baseline and chemoattractant-based invasion (10% FBS) were included. The number of invading cells was determined by counting the number of cells on the bottom of the invasion chamber membrane after staining at 100× magnification after 24 h (MDA-MB-231) or 48 h (MCF-7, MDA-MB-468). The results of three to five separate experiments are presented.

[3] = system: MDA-MB-231; test: Wound-healing (motility) assay, MDA-MB-231; assay type: cell-based, human; conditions: for Migrating cells: 18-24 h; for inhibition (block) of PlGF-stimulated motility / migration: soluble Flt-1 2 nM, PD98059 50 μM, Wortmannin 5 nM
Description: as §1, §2, §3

[4] = system: MCF-7; test: Wound-healing (motility) assay, MCF-7; assay type: cell-based, human; conditions: for Migrating cells: 18-24 h
Description: as §1, §2, §3

[5] = biological target: T1, VEGF165 (Homo sapiens, UniProt P15692); test: Free peptide binding ELISA (FLAG epitope probe), VEGF-coated wells; conditions: ELISA-based binding assay
T1 construct: purchased R&D Systems
T1 sequence (P15692 27-191 isoform P15692-4): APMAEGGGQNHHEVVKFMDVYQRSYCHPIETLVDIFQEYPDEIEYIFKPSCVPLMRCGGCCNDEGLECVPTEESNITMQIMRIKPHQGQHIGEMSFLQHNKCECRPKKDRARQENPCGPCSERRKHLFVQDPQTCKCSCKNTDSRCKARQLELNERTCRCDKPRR
Description: (§4) Competition assays were done with 2.5 or 25 U/ml heparin (Sigma, St. Louis, Mo.). BP1, 3, 4, and a scrambled version of BP3 (scrBP3) were synthesized with a linker followed by the FLAG epitope ([…] SEQ ID NO:5) at the C-terminus. Thirty minutes after addition of the first reagent, the second reagent was added, followed by another 30 minute incubation. Peptide binding was assessed by probing for the FLAG epitope (Prickett et al., Biotechniques 7:580-9, 1989; Castrucci et al., J. Virol. 66:4647-53, 1992). Absorbance was read at 490 nm.

[6] = system: MDA-MB-231 mfp tumor; test: Orthotopic mammary fat pad (mfp) MDA-MB-231 model; assay type: in vivo, SCID mice
Description: MDA-MB-231, grown in tissue culture, was also implanted in the mammary fat pad (mfp) of SCID mice (3×10^6 cells, 4-5 mice/group). In this model, large pulmonary metastases are less likely to develop (Richert et al., Breast Cancer Res. 7:R819-27, 2005). Peptide treatment was commenced on day 5 after implantation, when small tumors were palpable in all mice (8 treatments). Three days after the final peptide treatment, tumors were removed and weighed. Lungs were harvested and examined microscopically for metastases, as described above.

[7] = biological target: T2, PlGF (Homo sapiens, UniProt P49763); test: Free peptide binding ELISA (FLAG epitope probe), PlGF-coated wells; conditions: free peptide; BP3, BP4, BP3scr at up to 50 μM
T2 construct: purchased R&D Systems
T2 sequence (P49763 19-170 isoform P49763-3 limits assumed): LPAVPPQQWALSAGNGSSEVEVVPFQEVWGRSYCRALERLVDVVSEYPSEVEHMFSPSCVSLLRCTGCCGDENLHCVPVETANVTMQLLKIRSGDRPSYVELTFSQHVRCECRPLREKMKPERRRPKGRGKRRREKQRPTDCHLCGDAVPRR
Description: as §4

[8] = biological target: T3, recombinant human Flt-1 fusion protein (Homo sapiens, UniProt P17948); test: Free peptide binding and competition ELISA, Flt-1-coated wells; conditions: ELISA-based binding assay
T3 construct: purchased R & D Systems
Description: as §4

[9] = system: MDA-MB-231 s.c. xenograft; test: Subcutaneous MDA-MB-231 xenograft growth and lung metastasis; assay type: in vivo, nude mice; conditions: subsequent experiment, start at 0.07-0.08 cm^3; 200 μg i.p.; mock 0.25
Description: The tissue-culture-grown human breast tumor cell line, MDA-MB-231, was implanted subcutaneously (s.c.) on the flanks of nude mice. When tumors were visible, the mice were weighed and the tumors measured. Treatment with peptides was begun when tumors averaged about 0.06-0.12 cm^3 in volume. Mice were treated with 200-μg peptide in PBS by i.p. injection at 3-4-day intervals for 4 weeks. Animals were weighed and the tumors measured at each treatment. In a second experiment, the control peptide, CPA, was included. Three days after the final treatment, tumors and lungs were harvested. Tumor burden of the lungs (from experiment 1) was determined by counting colonies (<20 cells), clusters (>20-100 cells), and nodules (>100 cells) seen in all the lung tissue on a total of 4 slides or sections for each mouse. Data are presented as the average number of each size of metastasis for each treatment group (3-4 mice/group). The total number of each was summed for each treatment group, and divided by the total number of mice in that group. The percent inhibition for metastasis was determined by the formula: % inhibition=(# mock-treated−# treated/# mock-treated)×100.
To test for therapeutic activity of the peptide, BP1, mice were implanted with human breast cancer cells, MDA-MB-231, which produces lung metastases spontaneously when implanted as a subcutaneous tumor. When the tumors averaged 0.12 cm^3 in volume, either mock-treatment or therapy with BP1 was initiated at 200 μg, two times per week for 4 weeks. […] In a subsequent experiment, treatment was commenced when tumors were 0.07-0.08 cm^3. After 4 weeks of treatment, as described, the mean volume of the mock- and CPA-treated tumors was 0.25 and 0.33 cm^3, respectively, whereas BP1-treated tumors averaged 0.04 cm^3 (P<0.05 BP1 vs. mock- or CPA-treated tumors) (FIG. 3A).

[10] = system: MDA-MB-468 xenografts; assay type: in vivo, mice; conditions: 200 μg/dose i.p., twice-weekly, after 4 weeks
Description: FIG. 5. Treatment of mice bearing MDA-MB-468 xenografts with peptides BP1 or BP3. Mice were treated every 3-4 days with 200 ug BP as described in Methods. Tumor volume was measured 2×/week. *P<0.05 at days 10, 14, 17 and 24 (change in tumor volume (ANOVA)). FIG. 5A—tumors treated with binding peptide 1. FIG. 5B—tumors treated with binding peptide 3.
Mice bearing MDA-MB-468 xenografts (average tumor volume: 0.19 cm^3) were treated with i.p. injections of individual peptides (200 μg/dose) (FIG. 5). After 4 weeks of twice-weekly treatment, tumor growth was inhibited by 49% and 58% in mice treated with BP1 (FIG. 5A) or BP3 (FIG. 5B), respectively. The effect of BP3 on tumor growth was apparent after 2 weeks of treatment (FIG. 5B), whereas the inhibitory effect of BP1 was evident after one week (FIG. 5A). The average changes in individual tumor volumes during treatment with BP1 were significant (P<0.05) at days 10, 14, 17 and 24 (FIG. 5A). Treatment with BP2 was ineffective; tumors continued to grow at almost the same rate as the mock-treated controls (results not shown). BP4 treatment produced a 20% inhibition of tumor growth (results not shown).

[11] = growth factor VEGF 2 nM ± test agent
[12] = growth factor VEGF 2 nM ± test agent (peptide 2 μM, antibody 1 μg/ml)
[13] = PlGF 2 nM ± test agent, relative to PlGF-only value, unit assumed
[14] = growth factor PlGF 2 nM ± test agent (Flt-1 2 nM, peptide 2 μM, antibody 1 μg/ml, PD98059 50 μM, Wortmannin 5 nM)
[15] = VEGF 2 nM ± test agent, relative to VEGF-only value, unit assumed
[16] = growth factor PlGF 2 nM ± test agent (Flt-1 2 nM, peptide 2 μM, antibody 1 μg/ml)
[17] = PlGF 2 nM ± test agent, relative to PlGF-only value

T3 sequence (P17948 with tags, fused parts or gaps limits assumed): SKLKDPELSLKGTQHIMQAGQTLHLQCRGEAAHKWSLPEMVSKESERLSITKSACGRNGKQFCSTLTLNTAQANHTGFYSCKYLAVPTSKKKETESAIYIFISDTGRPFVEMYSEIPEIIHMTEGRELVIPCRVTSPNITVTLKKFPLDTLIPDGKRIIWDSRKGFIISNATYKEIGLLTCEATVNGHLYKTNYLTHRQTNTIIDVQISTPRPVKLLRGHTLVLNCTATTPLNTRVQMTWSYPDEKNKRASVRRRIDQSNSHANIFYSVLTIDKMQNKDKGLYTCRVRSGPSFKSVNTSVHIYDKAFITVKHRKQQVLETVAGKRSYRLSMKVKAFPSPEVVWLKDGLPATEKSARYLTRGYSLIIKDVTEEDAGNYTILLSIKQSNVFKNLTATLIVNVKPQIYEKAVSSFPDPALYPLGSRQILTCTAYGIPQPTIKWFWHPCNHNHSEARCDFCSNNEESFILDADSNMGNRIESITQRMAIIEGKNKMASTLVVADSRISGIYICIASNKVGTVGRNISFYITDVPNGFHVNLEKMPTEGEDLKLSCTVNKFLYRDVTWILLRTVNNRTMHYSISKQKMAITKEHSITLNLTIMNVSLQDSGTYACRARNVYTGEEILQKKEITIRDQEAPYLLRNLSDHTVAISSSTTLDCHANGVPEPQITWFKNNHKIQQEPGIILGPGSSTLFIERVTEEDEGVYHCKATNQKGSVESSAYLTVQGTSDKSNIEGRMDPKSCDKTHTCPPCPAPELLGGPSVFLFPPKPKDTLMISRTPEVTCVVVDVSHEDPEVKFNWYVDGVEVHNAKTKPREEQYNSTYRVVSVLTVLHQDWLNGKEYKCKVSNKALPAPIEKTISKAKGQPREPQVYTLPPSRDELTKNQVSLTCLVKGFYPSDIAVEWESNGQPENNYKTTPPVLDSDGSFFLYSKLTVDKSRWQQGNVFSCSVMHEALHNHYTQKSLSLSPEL

Molecule: VEGF
- Migrating cells [1, 11]: 14.0 ± 11.3 cells/100× field
- invading cells ([2]; VEGF 2.0 nM or 0.2 nM): 10±8.0 cells
- Migrating cells [3, 12]: 11.1 ± 1.8 cells/100× field
- Migrating cells [4, 11]: 12.7 ± 4.1 cells/100× field

Molecule: COc1cccc(-c2cc(=O)c3ccccc3o2)c1N [PD98059, reference compound]
- Relative activity [3, 13]: 43%
- Migrating cells [3, 14]: 18.4 ± 8.0‡ cells/100× field
- inhibition (block) of PlGF-stimulated motility / migration [3]: 68%

Molecule: CPA: control peptide derived by substituting A for the H, R and D residues in BP1 (SAAYALAIQLAASASSSSCV) [reference compound]
- Relative activity [1, 15]: 104%
- Migrating cells [1, 16]: 21.6 ± 6.1 cells/100× field
- Migrating cells [1, 11]: 14.6 ± 8.0 cells/100× field
- invading cells, PlGF plus peptide ([2]; PlGF-stimulated invasion with added peptide): 35±17.3 cells
- binding to VEGF (in words) [5]: bound
- Relative activity [3, 15]: 121%
- effect on PlGF-stimulated motility (in words) ([3]; antibody 1 μg/ml, peptide 2 μM): had no effect
- Migrating cells [3, 14]: 39.8 ± 10.6 cells/100× field
- Migrating cells [3, 12]: 13.4 ± 4.5 cells/100× field
- tumor weight ([6]; 8 peptide treatments, mock-treated 0.423±0.089): 0.416 ± 0.083 g
- micrometastasis counts per mouse ([6]; lung, mock-treated 3.4±1.9): 2.8±1.3
- binding to PlGF (in words) [7]: bound
- Relative activity [4, 15]: 111%
- Migrating cells [4, 11]: 19.4 ± 8.9 cells/100× field
- attenuated affinity for Flt-1 [8]: 50%
- mean tumor volume after 4 weeks of treatment [9]: 0.33 cm^3

Molecule: COC[C@H]1OC(=O)c2coc3c2[C@@]1(C)C1=C(C3=O)[C@@H]2CCC(=O)[C@@]2(C)C[C@H]1OC(C)=O [Wortmannin, reference compound]
- Relative activity [3, 13]: 39%
- Migrating cells [3, 14]: 16.4 ± 5.8‡ cells/100× field
- inhibition (block) of PlGF-stimulated motility / migration [3]: 72%

Molecule: QDDHLTTGR (listed as Homo sapiens) [BP2]
- tumor growth inhibition [10]: ineffective

B1: Flt-1: human recombinant soluble Flt-1 (sFlt-1) (R&D Systems) (protein)
chain: SKLKDPELSLKGTQHIMQAGQTLHLQCRGEAAHKWSLPEMVSKESERLSITKSACGRNGKQFCSTLTLNTAQANHTGFYSCKYLAVPTSKKKETESAIYIFISDTGRPFVEMYSEIPEIIHMTEGRELVIPCRVTSPNITVTLKKFPLDTLIPDGKRIIWDSRKGFIISNATYKEIGLLTCEATVNGHLYKTNYLTHRQTNTIIDVQISTPRPVKLLRGHTLVLNCTATTPLNTRVQMTWSYPDEKNKRASVRRRIDQSNSHANIFYSVLTIDKMQNKDKGLYTCRVRSGPSFKSVNTSVHIYDKAFITVKHRKQQVLETVAGKRSYRLSMKVKAFPSPEVVWLKDGLPATEKSARYLTRGYSLIIKDVTEEDAGNYTILLSIKQSNVFKNLTATLIVNVKPQIYEKAVSSFPDPALYPLGSRQILTCTAYGIPQPTIKWFWHPCNHNHSEARCDFCSNNEESFILDADSNMGNRIESITQRMAIIEGKNKMASTLVVADSRISGIYICIASNKVGTVGRNISFYITDVPNGFHVNLEKMPTEGEDLKLSCTVNKFLYRDVTWILLRTVNNRTMHYSISKQKMAITKEHSITLNLTIMNVSLQDSGTYACRARNVYTGEEILQKKEITIRDQEAPYLLRNLSDHTVAISSSTTLDCHANGVPEPQITWFKNNHKIQQEPGIILGPGSSTLFIERVTEEDEGVYHCKATNQKGSVESSAYLTVQGTSDKSN
modifications: left off: large carriers
- Relative activity [1, 17]: 53
- Migrating cells [1, 16]: 7.8 ± 5.9† cells/100× field
- Relative activity [3, 17]: 45
- Migrating cells [3, 14]: 19.1 ± 8.0† cells/100× field
- inhibition (block) of PlGF-stimulated motility / migration [3]: 55%
- Relative activity [4, 17]: 47
- Migrating cells [4, 16]: 10.4 ± 8.2† cells/100× field
- block of the stimulatory effect of PlGF on motility ([4]; soluble Flt-1 2 nM): 67%
